{"source": "patent US20250064983A1", "about": "“COMPOSITIONS AND METHODS FOR TREATING A CARDIAC DISEASE” (The Children's Medical Center Corporation, priority 2022, published 2025)", "key": {"CaMKII": {"system": "CaMKII", "assay": "phosphorylation of phospholamban (PLB) at threonine-17 in whole heart lysates exposed to isoproterenol", "assay_type": "in vivo, mouse", "conditions": "exposed to isoproterenol (ISO), FIG. 3", "protocol": "FIG. 3 provides a chart, a capillary Western image, and a plot showing the effects of the indicated constructs, which are described in FIG. 2D, on CaMKII activity in vivo. To confirm suppression of CaMKII activation in vivo, phosphorylation of phospholamban (PLB) at threonine-17, a known target of CaMKII, was analyzed from whole heart lysates. The middle panel of FIG. 3 provides a capillary Western image showing glyceraldehyde-3-phosphate dehydrogenase polypeptide (GAPDH) expression in cells contacted (+) or not contacted (−) with isoproterenol (ISO), as well as the levels of phosphorylated PLB (pPLB) and non-phosphorylated PLB (PLB). The right panel of FIG. 3 provides a plot showing the ratio of pPLB to PLB in hearts treated with no ISO or with ISO and mCherry (the “ISO” sample), AIP, AIP×5, AIP-FKBP12.6, CN19o, CN19oX3, or CN19o-FKBP12.6, which are described in FIG. 2D.\nTo confirm suppression of CaMKII activation in vivo, phosphorylation of phospholamban (PLB) at threonine-17, a known target of CaMKII, was evaluated in heart tissue from mice and whole heart lysates exposed to isoproterenol (ISO) (FIG. 3). Exposure of cardiac cells to ISO induced phosphorylation of PLB by CaMKII (FIG. 3)."}, "[1]": {"system": "RYR2^R4650I/WT mouse model of CPVT", "assay": "ectopy and induced VT in RYR2^R4650I/WT mouse model of CPVT, AAV delivery", "assay_type": "in vivo", "excerpt": "FIGS. 2A-2G provide plots, a protein structure, schematics, a bar graph, and images showing how a therapeutic cargo containing a CaMKII inhibitor was optimized to treat catecholaminergic polymorphic ventricular tachycardia (CPVT) through altering potency, binding, and/or multimerization of the CaMKII inhibitor. FIG. 2A provides plots showing the IC50 concentrations for the autocamtide-2-related inhibitory peptide (AIP) and CN19o (Coultrap, et al. “Improving a Natural CaMKII Inhibitor by Random and Rational Design,” PLoS One, Oct. 3, 2011, doi.org/10.1371/journal.pone.0025245; and Ishida, et al, “Critical amino acid residues of AIP, a highly specific inhibitory peptide of calmodulin-dependent protein kinase II,” FEBS Letters, 427:115-118 (1998), the disclosures of which is incorporated herein by reference in its entirety for all purposes). […]\nThe development of improved agents for the treatment of CPVT, the CPVT treatment efficacy of polypeptides A) containing multiple repeats of AIP (FIG. 2C) or the potent CaMKII inhibitor CN19o or B) containing AIP or CN19o fused to FKBP12.6 (FIG. 2B), which binds RYR2, which is a target of CaMKII (FIG. 1A). […] The efficacy of the polypeptides in treatment of catecholaminergic polymorphic ventricular tachycardia (CPVT) was evaluated in the RYR2^R4650I/WT mouse model of CPVT as shown in FIG. 2D. […]"}, "CaMKIIδ": {"molecular_target": "CaMKIIδ (Homo sapiens, UniProt Q13557)", "sequence (Q13557 1-478)": "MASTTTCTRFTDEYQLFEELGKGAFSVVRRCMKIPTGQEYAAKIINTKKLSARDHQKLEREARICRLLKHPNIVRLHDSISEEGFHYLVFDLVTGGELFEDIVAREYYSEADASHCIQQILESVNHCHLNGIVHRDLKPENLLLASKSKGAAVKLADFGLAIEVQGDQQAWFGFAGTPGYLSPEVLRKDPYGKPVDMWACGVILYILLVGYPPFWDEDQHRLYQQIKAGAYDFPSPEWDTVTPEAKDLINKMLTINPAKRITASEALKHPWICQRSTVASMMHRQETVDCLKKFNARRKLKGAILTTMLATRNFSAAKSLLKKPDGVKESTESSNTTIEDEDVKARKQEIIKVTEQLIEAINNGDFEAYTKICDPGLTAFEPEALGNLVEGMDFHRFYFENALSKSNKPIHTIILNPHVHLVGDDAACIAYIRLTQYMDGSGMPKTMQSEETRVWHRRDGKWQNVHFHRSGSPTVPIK", "assay": "in vitro inhibition of CaMKIIδ, bioluminescent ADP monitoring assay (ADP-GLO)", "assay_type": "biochemical", "conditions": "purified polypeptides", "protocol": "FIG. 4 provides a schematic illustrating the design of an in vitro experiment to evaluate the impact of the purified polypeptides described in FIG. 2D and shown in the left portion of FIG. 4 on CaMKIIδ (an isomer of CaMKII) activity. Activity of CaMKIIδ was measured using a bioluminescent and homogeneous ADP monitoring assay for kinases (ADP-GLO™), which is described in Zegzouti, et al. “ADP-Glo: A Bioluminescent and Homogeneous ADP Monitoring Assay for Kinases,” ASSAY and Drug Development Technologies, December 2009, 560-572, doi.org/10.1089/adt.2009.0222, the disclosure of which is incorporated herein by reference in its entirety for all purposes.\nInhibition of CaMKIIδ activity by the polypeptides was evaluated using a bioluminescent and homogeneous ADP monitoring assay for kinases (ADP-GLO™), which is described in Zegzouti, et al. “ADP-Glo: A Bioluminescent and Homogeneous ADP Monitoring Assay for Kinases,” ASSAY and Drug Development Technologies, December 2009, 560-572, doi.org/10.1089/adt.2009.0222, the disclosure of which is incorporated herein by reference in its entirety for all purposes (FIG. 4)."}}, "note": "“Also recorded” adds a separate entry of the source."}
{"sequence": "YKKALHRQEAVDALYKKALHRQEAVDALYKKALHRQEAVDALYKKALHRQEAVDALYKKALHRQEAVDAL [AIP×5]", "values": [{"measurement": "PLB phosphorylation (pPLB to PLB)", "setting": "CaMKII", "value": "statistically significant decrease in PLB phosphorylation"}, {"measurement": "percent of mice that showed induced ventricular tachycardia (VT)", "setting": "[1]; AAV vector (FIG. 2F)", "value": "reduction in instances of induced VT"}, {"measurement": "percent ectopy / CPVT treatment efficacy", "setting": "[1]; RYR2^R4650I/WT mice, AAV vector (FIG. 2E, 2F)", "value": "greatest reduction in instances of ectopy; also recorded: most effective in treating CPVT"}, {"measurement": "EC50", "setting": "CaMKIIδ", "value": 114, "unit": "nM"}]}
